{"source": "patent US20050106173A1", "about": "“METHODS AND COMPOSITIONS FOR TREATING MALE SEXUAL DYSFUNCTION” (priority 2003, published 2005)", "assay_type_in_all_cases": "in vivo", "key": {"castrated Wistar rats [1]": {"system": "castrated Wistar rats", "experiment": "Erectile function by electrical stimulation (erection lag) in castrated rats", "details": "once daily for 30 days, day 31, stimulator 55 Hz and 4.5 mA", "experimental": "(§1) To test the ability of the EMF-treated AS2.502 cells to improve male sexual function, hormone levels, and sexual organ development, 50 healthy adult male Wistar rats (about 150-180 g body weight, 8-10 weeks old) were selected. Ten rats were randomly selected to be the normal control group, CK1 (uncastrated rats). Under anesthesia with pentobarbital (5%, at 45 mg/kg body weight), both testes (including the epididymis) of each of the remaining 40 rats were removed under sterile conditions. Immediately after castration, Penicillin G was injected at 20,000 U/kg body weight once daily for five consecutive days. The castrated rats were then randomly divided into four equal groups, designated as AY (for treatment with the activated yeast composition), NY (for treatment with the control yeast composition), CK2 (for treatment with testosterone propionate), and CK3 (for treatment with saline). Each rat was kept separately. The activated yeast composition was administered to the AY rats at 1.2 ml/kg body weight once daily for 30 days. The control yeast composition was administered to the NY rats and saline was administered to the CK3 rats at the same dosage. […]\nOn the thirty-first day of the experiment, an electrical stimulator was used to measure the erectile function of the rats. […] The time needed for the penis to achieve erection (“the erection lag”) was recorded in Table 3."}, "[2]": {"system": "castrated male Wistar rats", "experiment": "Wet weight of glandulae preputiales, seminal vesicle and prostate of castrated rats", "details": "once daily for 30 days, sacrificed day 31", "experimental": "as §1, with “100-120” for “150-180”, “6-8” for “8-10”\nEach male rat was sacrificed on the thirty-first day. […] The wet weight of the prostate and seminal vesicle was recorded in Table 2. […] The wet weight of the glandulae preputiales was also recorded in Table 2."}, "[3]": {"system": "castrated male Wistar rats", "experiment": "Sexual activity of castrated male rats caged with female rats (mounting, sniffing and licking frequency)", "details": "once daily for 30 days (yeast 1.2 ml/kg intragastric; testosterone propionate 2 mg/kg i.m.), day 29, two female rats in cage", "experimental": "as §1, with “100-120” for “150-180”, “6-8” for “8-10”, “days.” for “days. The control yeast composition was administered to the NY rats and saline was administered to the CK3 rats at the same dosage.”\nOn the twenty-ninth day of the experiment, two female rats (100-120 g, 6-8 weeks old) were put into the same cage as each male rat and kept there for 30 minutes. The frequency of the male rat's sniffing and licking of the female rats, and the frequency of the male rat's mounting of the female rats were recorded in Table 2."}, "castrated Wistar rats [4]": {"system": "castrated Wistar rats", "experiment": "Blood testosterone concentration by radio-immunoassay (RIA) in castrated rats", "details": "once daily for 30 days, blood after the erection test on day 31, RIA", "experimental": "as §1\nEach rat was sacrificed after the erection test. Blood samples were collected from each rat, and the blood concentration of testosterone was determined by the standard radio-immunoassay (RIA) method."}}, "data": [{"molecule": "CCC(=O)O[C@H]1CC[C@H]2[C@@H]3CCC4=CC(=O)CC[C@]4(C)[C@H]3CC[C@]12C", "note": "[testosterone propionate]", "values": [{"measurement": "Erection Lag", "setting": "castrated Wistar rats [1]", "result": "19.3 ± 14.6", "unit": "s"}, {"measurement": "Glandulae Preputiales (wet weight)", "setting": "[2]", "result": "89.5 ± 14.6", "unit": "mg"}, {"measurement": "Seminal Vesicle and Prostate (wet weight)", "setting": "[2]", "result": "198.7 ± 42.6", "unit": "mg"}, {"measurement": "Mounting Frequency Within a 30 min Period", "setting": "[3]", "result": "12.3 ± 4.6"}, {"measurement": "Sniffing & Licking Frequency Within a 30 min Period", "setting": "[3]", "result": "22.7 ± 4.6"}, {"measurement": "Testosterone Levels", "setting": "castrated Wistar rats [4]", "result": "124.17 ± 67.65", "unit": "ng/dL"}]}]}
